Assay results taken from patent US20240280564A1, “ASSAY FOR EXTRINSIC INHIBITION” (The J. David Gladstone Institutes, a testamentary trust …, priority 2021, published 2024).

Legend:
primary rat OPCs = experiment: OPC-X-screen: high-content imaging of MBP+ OLs and GFAP+ astrocytes in fibrinogen-treated OPCs; assay type: cell-based; conditions: for Cell-fate switch of OPCs to GFAP+ cells by fibrinogen: fibrinogen-treated primary rat OPCs; for OPC differentiation to mature MBP+ OLs in the presence of fibrinogen: myelin-promoting compound screen, fibrinogen 1.5 mg/ml, benztropine, clemastine, quetiapine, miconazole, (±)U-50488, DMH1 1 μM, clobetasol 5 μM, XAV-939 0.1 μM
[1] = test system: BMP signal transducers SMAD1/5 (phosphorylation); experiment: Immunoblot of phospho-SMAD1/5 in fibrinogen-treated primary rat OPCs; assay type: cell-based
Experimental: (§1) Cells or tissue were lysed in RIPA lysis buffer (Thermo Fisher Scientific) supplemented with protease/phosphatase inhibitor cocktails (Calbiochem) and lysates were cleared by centrifuging at 13,000×g for 15 minutes at 4° C. Equal amounts of protein were loaded in 4%-12% bis-tris gels (Thermo Fisher Scientific) and analyzed by western blotting. Bands were visualized with HRP-conjugated secondary antibodies (Cell Signaling Technology). Densitometry was performed using ImageJ Software (NIH) with values for each band normalized to GAPDH loading controls from the same membrane. Primary antibodies were: Id2 (1:1000, rabbit monoclonal, #M213, CalBioreagents); phospho-Smad1/5 (1:1000, rabbit monoclonal, #9516, Cell Signaling Technology); GAPDH (1:1000, rabbit monoclonal, #2118, Cell Signaling Technology)

BMP target protein ID2 = experiment: Immunoblot of ID2 protein in fibrinogen-treated primary rat OPCs; assay type: cell-based
Experimental: as §1

[2] = cited from earlier work
MOG35-55 EAE mice = experiment: Chronic MOG35-55 EAE in NG2-CreERTM:RosatdTomato/+ mice, therapeutic treatment; assay type: in vivo, mouse
NOD-MOG35-55 EAE mice = experiment: Progressive NOD-MOG35-55 EAE, therapeutic treatment; assay type: in vivo, mouse
[3] = fibrinogen 2.5 mg/ml, three-fold serial dilutions 5 μM to 2 nM, 3 days
[4] = fibrinogen alone in the OPC-X assay

CC(C)Oc1ccc(-c2cnc3c(-c4ccnc5ccccc45)cnn3c2)cc1 [DMH1]
Cell-fate switch of OPCs to GFAP+ cells by fibrinogen (primary rat OPCs; 3 days): abolished
OPC differentiation to mature MBP+ OLs in the presence of fibrinogen (primary rat OPCs; 3 days): restored OPC differentiation to mature OLs to control levels
Fibrinogen-induced phosphorylation of SMAD1/5 [1]: blocked
Fibrinogen-induced expression of ID2 (BMP target protein ID2): blocked
Water solubility [2]: not water-soluble

OCCOCCN1CCN(C2=Nc3ccccc3Sc3ccccc32)CC1 [quetiapine]
OPC differentiation to mature MBP+ OLs in the presence of fibrinogen (primary rat OPCs; 3 days): did not overcome extrinsic inhibition of OPC differentiation by fibrinogen

c1cc(-c2cnn3cc(-c4ccc(N5CCNCC5)cc4)cnc23)c2cccnc2c1 [LDN-212854]
Formation of GFAP+ astrocytes from fibrinogen-treated OPCs, dose response (primary rat OPCs; [3]): blocked
Mature OL (MBP+) differentiation of fibrinogen-treated OPCs, dose response (primary rat OPCs; [3]): restored mature OL differentiation
Clinical scores (MOG35-55 EAE mice; 6 mg/kg twice daily for 14 days starting at peak disease, vs saline): significantly improved
Formation of OPC-derived GFAP+ astrocytes (MOG35-55 EAE mice; 14 day treatment, fate mapping): abolished
Proportion of NG2tdTomato+ OPCs differentiated into GST-pi+ mature OLs (MOG35-55 EAE mice; 14 day treatment, fate mapping, vs controls): increased
ID2 expression in NG2 cells in the EAE white matter (MOG35-55 EAE mice; 14 day treatment, vs saline): decreased
Myelin damage (myelin circularity, in vivo 2P imaging) (MOG35-55 EAE mice; chronic, vs saline): markedly reduced
Perivascular NG2 clusters (in vivo 2P imaging) (MOG35-55 EAE mice; chronic, vs saline): markedly reduced
Demyelination in spinal cord (MOG35-55 EAE mice; vs saline): reduced
Fibrinogen deposition in spinal cord (MOG35-55 EAE mice; vs saline): reduced
Group mean of maximum clinical scores (NOD-MOG35-55 EAE mice; 30 days treatment, five-point scale, saline 2.36): 1.75
Clinical scores (NOD-MOG35-55 EAE mice; treated for 30 days, vs saline): significantly improved
Demyelination in spinal cord (NOD-MOG35-55 EAE mice; vs saline): reduced
Fibrinogen deposition in spinal cord (NOD-MOG35-55 EAE mice; vs saline): reduced
Water solubility [2]: water-soluble

CN1CCC[C@@H]1CCO[C@](C)(c1ccccc1)c1ccc(Cl)cc1 [clemastine]
OPC differentiation to mature OLs in the presence of fibrinogen (clemastine dose-response) (primary rat OPCs; fibrinogen 2.5 mg/ml, differentiation media without T3 or growth factors, 3 days): did not enhance OPC differentiation to mature OLs in the presence of fibrinogen
Cell-fate switch of OPCs to GFAP+ cells by fibrinogen (primary rat OPCs; 3 days): did not inhibit SMAD1/5 phosphorylation, a key pathway downstream of BMP receptor activation, or rescue OPC cell fate switch to astrocytes
OPC differentiation to mature MBP+ OLs in the presence of fibrinogen (primary rat OPCs; 3 days): did not overcome extrinsic inhibition of OPC differentiation by fibrinogen
Number of MBP+ cells in control conditions (primary rat OPCs; no fibrinogen, differentiation media without T3 or growth factors, 3 days): increased
Fibrinogen-induced phosphorylation of SMAD1/5 [1]: did not block
Fibrinogen-induced expression of ID2 (BMP target protein ID2): did not block

CN1[C@@H]2CC[C@H]1C[C@@H](OC(c1ccccc1)c1ccccc1)C2 [benztropine]
OPC differentiation to mature MBP+ OLs in the presence of fibrinogen (primary rat OPCs; 3 days): did not overcome extrinsic inhibition of OPC differentiation by fibrinogen

C[C@H]1C[C@H]2[C@@H]3CCC4=CC(=O)C=C[C@]4(C)[C@@]3(F)[C@@H](O)C[C@]2(C)[C@@]1(O)C(=O)CCl [clobetasol]
OPC differentiation to mature MBP+ OLs in the presence of fibrinogen (primary rat OPCs; 3 days): did not overcome extrinsic inhibition of OPC differentiation by fibrinogen

fibrinogen
Decrease of MBP+ mature OLs as compared to controls (primary rat OPCs; [4]): ~60%
Increase of GFAP+ astrocyte-like cells as compared to controls (primary rat OPCs; [4]): ~60%

Oc1nc(-c2ccc(C(F)(F)F)cc2)nc2c1CSCC2 [XAV-939]
OPC differentiation to mature MBP+ OLs in the presence of fibrinogen (primary rat OPCs; 3 days): did not overcome extrinsic inhibition of OPC differentiation by fibrinogen

Clc1ccc(COC(Cn2ccnc2)c2ccc(Cl)cc2Cl)c(Cl)c1 (stereo not drawn) [miconazole]
OPC differentiation to mature MBP+ OLs in the presence of fibrinogen (primary rat OPCs; 3 days): did not overcome extrinsic inhibition of OPC differentiation by fibrinogen
